Laboratory results as given in US9969749B2, “Inhibitors of IRAK4 activity” (MERCK SHARP & DOHME CORP., priority 2014, dated 2018).

target: IRAK4 (Homo sapiens (Human), UniProt Q9NWZ3); assay: IRAK4 Kinase Assay (IMAP fluorescence polarization); type: biochemical; conditions: 0.5 nM GST tagged IRAK4, 100 μM ATP, 100 nM fluorescent peptide substrate RP7030, 30 minutes at 25° C.
In short: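 GST-tagged IRAK4 (0.5 nM) phosphorylates 100 nM fluorescent peptide with 100 μM ATP in 10 mM Tris pH 7.2, 1 mM MgCl2, 1 mM DTT, 0.01% Tween 20 for 30 min at 25 °C. Phosphorylation read as IMAP nanoparticle-binding fluorescence polarization after stop reagent.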

Sequence of IRAK4 (Q9NWZ3 whole entry): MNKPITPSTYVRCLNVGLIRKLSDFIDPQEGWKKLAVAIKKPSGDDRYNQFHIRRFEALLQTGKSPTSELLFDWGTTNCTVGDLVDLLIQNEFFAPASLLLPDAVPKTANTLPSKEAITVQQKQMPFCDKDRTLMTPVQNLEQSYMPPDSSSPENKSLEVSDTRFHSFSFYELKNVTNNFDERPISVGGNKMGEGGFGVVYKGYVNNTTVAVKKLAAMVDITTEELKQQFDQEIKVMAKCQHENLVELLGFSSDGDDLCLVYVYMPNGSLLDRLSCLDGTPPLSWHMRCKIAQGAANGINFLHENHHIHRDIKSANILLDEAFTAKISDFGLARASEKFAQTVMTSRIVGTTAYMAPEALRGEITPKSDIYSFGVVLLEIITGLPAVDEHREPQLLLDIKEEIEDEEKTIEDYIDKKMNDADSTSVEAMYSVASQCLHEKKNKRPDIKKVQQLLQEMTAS

| SMILES | IC50 [nM] |
| --- | --- |
| Fc1c[nH]nc1-c1ccc2ncnc(N[C@H]3CC[C@H](N4CCOCC4)CC3)c2c1 [Example 2-9, 6-(4-fluoro-1H-pyrazol-3-yl)-N-(trans-4-morpholin-4-ylcyclohexyl)quinazolin-4-amine] | 12 |
| N#Cc1n[nH]cc1-c1ccc2ncnc(N[C@H]3CC[C@H](N4CCOCC4)CC3)c2c1 [Example 2-10, 4-{4-[(trans-4-morpholin-4-ylcyclohexyl)amino]quinazolin-6-yl}-1H-pyrazole-3-carbonitrile] | 8 |
| N#Cc1nn[nH]c1-c1ccc2ncnc(N[C@H]3CC[C@H](N4CCOCC4)CC3)c2c1 [Example 2-11, 5-{4-[(trans-4-morpholin-4-ylcyclohexyl)amino]quinazolin-6-yl}-1H-1,2,3-triazole-4-carbonitrile] | 62 |
| Cn1cc(-c2ccc3ncnc(N[C@H]4CC[C@H](N5CCOCC5)CC4)c3c2)c(CO)n1 [Example 2-12, (1-methyl-4-{4-[(trans-4-morpholin-4-ylcyclohexyl)amino]quinazolin-6-yl}-1H-pyrazol-3-yl)methanol] | 261 |
| Cn1nccc1-c1ccc2ncnc(N[C@H]3CC[C@H](N4CCOCC4)CC3)c2c1 [Example 2-13, 6-(1-methyl-1H-pyrazol-5-yl)-N-(trans-4-morpholin-4-ylcyclohexyl)quinazolin-4-amine] | 324 |
| FC(F)(F)c1n[nH]cc1-c1ccc2ncnc(N[C@H]3CC[C@H](N4CCOCC4)CC3)c2c1 [Example 2-14, N-(trans-4-morpholin-4-ylcyclohexyl)-6-[3-(trifluoromethyl)-1H-pyrazol-4-yl]quinazolin-4-amine] | 80 |
| Cn1nncc1-c1ccc2ncnc(N[C@H]3CC[C@H](N4CCOCC4)CC3)c2c1 [Example 2-15, 6-(1-methyl-1H-1,2,3-triazol-5-yl)-N-(trans-4-morpholin-4-ylcyclohexyl)quinazolin-4-amine] | 152 |
| c1nc(N[C@H]2CC[C@H](N3CCOCC3)CC2)c2cc(-c3cnc4c(c3)NCC4)ccc2n1 [Example 2-16, 6-(2,3-dihydro-1H-pyrrolo[3,2-b]pyridin-6-yl)-N-[trans-4-(morpholin-4-yl)cyclohexyl]quinazolin-4-amine] | 48 |
| N#Cc1sccc1-c1ccc2ncnc(N[C@H]3CC[C@H](N4CCOCC4)CC3)c2c1 [Example 2-17, 3-(4-{[trans-4-(morpholin-4-yl)cyclohexyl]amino}quinazolin-6-yl)thiophene-2-carbonitrile] | 41 |
| N#Cc1cscc1-c1ccc2ncnc(N[C@H]3CC[C@H](N4CCOCC4)CC3)c2c1 [Example 2-18, 4-(4-{[trans-4-(morpholin-4-yl)cyclohexyl]amino}quinazolin-6-yl)thiophene-3-carbonitrile] | 52 |
| Cc1nc[nH]c1-c1ccc2ncnc(N[C@H]3CC[C@H](N4CCOCC4)CC3)c2c1 [Example 2-19, 6-(4-methyl-1H-imidazol-5-yl)-N-[trans-4-(morpholin-4-yl)cyclohexyl]quinazolin-4-amine] | 184 |
| Cc1n[nH]cc1-c1ccc2ncnc(N[C@H]3CC[C@H](N4CCOCC4)CC3)c2c1 [Example 2-20, 6-(3-methyl-1H-pyrazol-4-yl)-N-[trans-4-(morpholin-4-yl)cyclohexyl]quinazolin-4-amine] | 22 |
| Cc1c(-c2ccc3ncnc(N[C@H]4CC[C@H](N5CCOCC5)CC4)c3c2)cnn1C [Example 2-21, 6-(1,5-dimethyl-1H-pyrazol-4-yl)-N-[trans-4-(morpholin-4-yl)cyclohexyl]quinazolin-4-amine] | 126 |
| Cc1c[nH]c(-c2ccc3ncnc(N[C@H]4CC[C@H](N5CCOCC5)CC4)c3c2)n1 [Example 2-22, 6-(4-methyl-1H-imidazol-2-yl)-N-[trans-4-(morpholin-4-yl)cyclohexyl]quinazolin-4-amine] | 492 |
| Cc1cn(C)c(-c2ccc3ncnc(N[C@H]4CC[C@H](N5CCOCC5)CC4)c3c2)n1 [Example 2-23, 6-(1,4-dimethyl-1H-imidazol-2-yl)-N-[trans-4-(morpholin-4-yl)cyclohexyl]quinazolin-4-amine] | 1190 |
| Cc1n[nH]c(C)c1-c1ccc2ncnc(N[C@H]3CC[C@H](N4CCOCC4)CC3)c2c1 [Example 2-24, 6-(3,5-dimethyl-1H-pyrazol-4-yl)-N-[trans-4-(morpholin-4-yl)cyclohexyl]quinazolin-4-amine] | 104 |
| Cc1nc(-c2ccc3ncnc(N[C@H]4CC[C@H](N5CCOCC5)CC4)c3c2)c[nH]1 [Example 2-25, 6-(2-methyl-1H-imidazol-4-yl)-N-[trans-4-(morpholin-4-yl)cyclohexyl]quinazolin-4-amine] | 88 |
| Cn1ccnc1-c1ccc2ncnc(N[C@H]3CC[C@H](N4CCOCC4)CC3)c2c1 [Example 2-26, 6-(1-methyl-1H-imidazol-2-yl)-N-[trans-4-(morpholin-4-yl)cyclohexyl]quinazolin-4-amine] | 562 |
| Cn1ncnc1-c1ccc2ncnc(N[C@H]3CC[C@H](N4CCOCC4)CC3)c2c1 [Example 2-27, 6-(1-methyl-1H-1,2,4-triazol-5-yl)-N-[trans-4-(morpholin-4-yl)cyclohexyl]quinazolin-4-amine] | 159 |
| c1nc(N[C@H]2CC[C@H](N3CCOCC3)CC2)c2cc(-c3cnoc3)ccc2n1 [Example 2-28, 6-(isoxazol-4-yl)-N-[trans-4-(morpholin-4-yl)cyclohexyl]quinazolin-4-amine] | 2 |
| COc1cc(-c2ccc3ncnc(N[C@H]4CC[C@H](N5CCOCC5)CC4)c3c2)cnc1F [Example 2-29, 6-(6-fluoro-5-methoxypyridin-3-yl)-N-[trans-4-(morpholin-4-yl)cyclohexyl]quinazolin-4-amine] | 20 |
| Oc1cc(-c2ccc3ncnc(N[C@H]4CC[C@H](N5CCOCC5)CC4)c3c2)cnc1F [Example 2-30, 2-fluoro-5-(4-{[trans-4-(morpholin-4-yl)cyclohexyl]amino}quinazolin-6-yl)pyridin-3-ol] | < 0.5 |
| CN(C)c1cc(-c2ccc3ncnc(N[C@H]4CC[C@H](N5CCOCC5)CC4)c3c2)cnc1F [Example 2-31, 6-[5-(dimethylamino)-6-fluoropyridin-3-yl]-N-[trans-4-(morpholin-4-yl)cyclohexyl]quinazolin-4-amine] | 73 |
| CNc1cc(-c2ccc3ncnc(N[C@H]4CC[C@H](N5CCOCC5)CC4)c3c2)cnc1F [Example 2-32, 6-[6-fluoro-5-(methylamino)pyridin-3-yl]-N-[trans-4-(morpholin-4-yl)cyclohexyl]quinazolin-4-amine] | 1 |
| Fc1cc(-c2ccc3ncnc(N[C@H]4CC[C@H](N5CCOCC5)CC4)c3c2)cnc1Cl [Example 2-33, 6-(6-chloro-5-fluoropyridin-3-yl)-N-[trans-4-(morpholin-4-yl)cyclohexyl]quinazolin-4-amine] | 28 |
| Fc1cc(-c2ccc3ncnc(N[C@H]4CC[C@H](N5CCOCC5)CC4)c3c2)cnc1F [Example 2-34, 6-(5,6-difluoropyridin-3-yl)-N-[trans-4-(morpholin-4-yl)cyclohexyl]quinazolin-4-amine] | 13 |
| FC(F)c1cncc(-c2ccc3ncnc(N[C@H]4CC[C@H](N5CCOCC5)CC4)c3c2)c1 [Example 2-35, 6-[5-(difluoromethyl)pyridin-3-yl]-N-[trans-4-(morpholin-4-yl)cyclohexyl]quinazolin-4-amine] | 37 |
